Reference: patent US8921366B2, “Substituted triazolo-pyridazine derivatives” (Concert Pharmaceuticals, Inc., priority 2008, dated 2014)

How the values were obtained:
[1] = Metabolic stability in human liver microsomes; assay type: in vitro ADME; conditions: for stability in human liver microsomes: 30 minute incubation
Method: (§1) Human liver microsomes (20 mg/mL) and rat liver microsomes (20 mg/mL) were obtained from Xenotech, LLC (Lenexa, Kans.). β-nicotinamide adenine dinucleotide phosphate, reduced form (NADPH), magnesium chloride (MgCl2), and dimethyl sulfoxide (DMSO) were purchased from Sigma-Aldrich. 7.5 mM stock solutions of test compounds (L-838417, Compound 101, Compound 103, Compound 104 and Compound 105) were prepared in DMSO. The 7.5 mM stock solutions were diluted to 12.5 μM in acetonitrile (ACN). The 20 mg/mL […] were diluted to […] in 0.1 M potassium phosphate buffer, pH 7.4, containing 3 mM MgCl2. The diluted microsomes (375 μL) were added to wells of a 96-well deep-well polypropylene plate in triplicate. 10 μL of the 12.5 μM test compound was added to the microsomes and the mixture was pre-warmed for 10 minutes. Reactions were initiated by addition of 125 μL pre-warmed NADPH solution. The final reaction volume is 0.5 mL and contained 0.5 mg/mL human liver microsomes, 0.25 μM test compound, and 2 mM NADPH in 0.1 M potassium phosphate buffer, pH 7.4, and 3 mM MgCl2. The reaction mixtures are incubated at 37° C., and 50 μL aliquots were removed at 0, 5, 10, 20, and 30 minutes and added to shallow-well 96-well plates which contained 50 μL of ice-cold ACN with internal standard to stop the reactions. The plates were stored at 4° C. for 20 minutes after which 100 μL of water was added to the wells of the plate before centrifugation to pellet precipitated proteins. Supernatants were transferred to another 96-well plate and analyzed for amounts of parent remaining by LC-MS/MS using an Applied Bio-systems API 4000 mass spectrometer. 7-ethoxycoumarin (1 μM) was used as a positive control. The in vitro t1/2s for test compounds were calculated from the slopes of the linear regression of % parent remaining (ln) vs incubation time relationship, using the formula: in vitro t1/2=0.693/k, where k=−[slope of linear regression of % parent remaining(ln) vs incubation time] Data analysis is performed using Microsoft Excel Software.

[2] = Metabolic stability in rat liver microsomes; assay type: in vitro ADME; conditions: for parent compound remained intact / stability in rat microsomes: 30 minutes incubation; for half-life at 0.25 µM: pH 7.4, calculated from slope of ln % parent remaining vs time, read-out: in vitro half-life
Method: as §1

[3] = Pharmacokinetics after intravenous administration to rats; assay type: in vivo, Sprague-Dawley rats; conditions: for clearance / half-life / AUC(0-t): rat, plasma, 1 mg/kg each as 1:1:1 mixture, male Sprague-Dawley rats; for AUC(0-t): read-out: AUC0-6; for AUC0-6 % Change over L-838417 / AUC0-6 relative to undeuterated L-838417 / CL % Change over L-838417 / cleared more slowly than L-838417 / longer half-life than undeuterated L-838417 / t1/2 % Change over L-838417: rats
Method: (§2) Three male Sprague-Dawley rats (200-250 g each) were cannulated in the jugular vein and were administered a single dose containing 1 mg/kg each of L-838417, Compound 103 and Compound 105 (as a 1:1:1 mixture containing 1 mg/mL of each of the three compounds in 10% dimethyl sulfoxide (DMSO), 10% N,N-dimethylacetamide (DMA), and 60% polyethylene glycol (PG) through the jugular cannula. Three additional male Sprague-Dawley rats (200-250 g each) were administered a single dose containing 1 mg/kg each of L-838417, Compound 103 and Compound 105 (as a 1:1:1 mixture containing 1 mg/mL of each of the three compounds in 10% dimethyl sulfoxide (DMSO), 10% N,N-dimethylacetamide (DMA), and 60% polyethylene glycol (PG) by oral gavage. Blood (0.25 mL) from intravenously treated test rats was collected retro-orbitally at 2, 5, 15, and 30 minutes, and 1, 2, 4, and 6 hours post-dosing. Blood (0.25 mL) from orally treated test rats was collected retro-orbitally at 5, 15, 30, and 45 minutes, and 1, 2, 4, and 6 hours post-dosing. Blood was collected into tubes containing K2EDTA as anticoagulant at the above mentioned time points. Blood samples were stored on ice and then centrifuged to obtain plasma. The plasma (˜[…]) was aliquoted into deep 96-well plates and stored at −80° C. until analysis by LC-MS/MS using an Applied Bio-systems API 4000 mass spectrometer.

[4] = Pharmacokinetics after oral administration to rats; assay type: in vivo, Sprague-Dawley rats; conditions: for AUC0-6 % Change over L-838417 / AUC0-6 relative to undeuterated L-838417 / Cmax % Change over L-838417 / Cmax relative to L-838417: oral, rats; for Cmax / AUC(0-t): rat, plasma, oral gavage, 1 mg/kg each as 1:1:1 mixture, male Sprague-Dawley rats; for AUC(0-t): read-out: AUC0-6
Method: as §2

stability in human liver microsomes [1] | parent compound remained intact [2] | half-life at 0.25 µM [2] [min] | clearance [3] [mL/min/kg] | half-life [3] [min] | AUC(0-t) [3] [ng·h/mL] | AUC0-6 % Change over L-838417 [3] | AUC0-6 relative to undeuterated L-838417 [3] | CL % Change over L-838417 [3] [%] | cleared more slowly than L-838417 [3] | longer half-life than undeuterated L-838417 [3] | t1/2 % Change over L-838417 [3] | stability in rat microsomes [2] | AUC0-6 % Change over L-838417 [4] | AUC0-6 relative to undeuterated L-838417 [4] | Cmax % Change over L-838417 [4] | Cmax relative to L-838417 [4] | Cmax [4] [ng/mL] | AUC(0-t) [4] [ng·h/mL] | SMILES | further results
stable |  |  | 7.67 | 76.2 ± 8.4 | 1960 ± 190 | +136% | greater than two-fold higher | −60 | approximately 60% | approximately 80% | +81% | stable | +154% | greater than two and a half-fold higher | +119% | greater than two-fold higher | 280 ± 80 | 1250 ± 272 | [2H]C([2H])(Oc1nn2c(-c3cc(F)ccc3F)nnc2cc1C(C([2H])([2H])[2H])(C([2H])([2H])[2H])C([2H])([2H])[2H])c1ncnn1C([2H])([2H])[2H] [Compound 105, 7-(tert-Butyl-d9)-3-(2,5-difluorophenyl)-6-((1-(methyl-d3)-1H-1,2,4-triazol-5-yl)-1,1-d2-methoxy)-[1,2,4]triazolo[4,3-b]pyridazine] | 
 | approximately 70% | 50.5 | 18.3 | 42 ± 2.4 | 831 ± 86 |  |  |  |  |  |  |  |  |  |  |  | 128 ± 40 | 491 ± 95 | Cn1ncnc1COc1nn2c(-c3cc(F)ccc3F)nnc2cc1C(C)(C)C [Compound L-838417, 7-tert-butyl-3-(2,5-difluorophenyl)-6-(1-methyl-1H-1,2,4-triazol-5-ylmethoxy)[1,2,4]triazolo[4,3-b]pyridazine, reference compound] | parent compound remained intact ([1]; 30 minutes incubation, 0.25 μM test compound, 37° C.): approximately 70%; half-life at 0.25 µM ([1]; pH 7.4, calculated from slope of ln % parent remaining vs time, read-out: in vitro half life): 54.4 min

More lines, now with the values behind:

SMILES | stability in human liver microsomes [1] | parent compound remained intact [2] | half-life at 0.25 µM [2] [min] | clearance [3] [mL/min/kg] | half-life [3] [min] | AUC(0-t) [3] [ng·h/mL] | AUC0-6 % Change over L-838417 [3] | AUC0-6 relative to undeuterated L-838417 [3] | CL % Change over L-838417 [3] [%] | cleared more slowly than L-838417 [3] | longer half-life than undeuterated L-838417 [3] | t1/2 % Change over L-838417 [3] | stability in rat microsomes [2] | AUC0-6 % Change over L-838417 [4] | AUC0-6 relative to undeuterated L-838417 [4] | Cmax % Change over L-838417 [4] | Cmax relative to L-838417 [4] | Cmax [4] [ng/mL] | AUC(0-t) [4] [ng·h/mL] | further results
[2H]C([2H])(Oc1nn2c(-c3cc(F)ccc3F)nnc2cc1C(C)(C)C)c1ncnn1C([2H])([2H])[2H] [Compound 101, 7-tert-Butyl-3-(2,5-difluorophenyl)-6-((1-(methyl-d3)-1H-1,2,4-triazol-5-yl)-1,1-d2-methoxy)-[1,2,4]triazolo[4,3-b]pyridazine] | stable | approximately 70% | 52.7 |  |  |  |  |  |  |  |  |  |  |  |  |  |  |  |  | 
[2H]C([2H])([2H])C(c1cc2nnc(-c3cc(F)ccc3F)n2nc1OCc1ncnn1C)(C([2H])([2H])[2H])C([2H])([2H])[2H] [Compound 103, 7-(tert-Butyl-d9)-3-(2,5-difluorophenyl)-6-((1-methyl-1H-1,2,4-triazol-5-yl)methoxy)-[1,2,4]triazolo[4,3-b]pyridazine] | stable |  |  | 8 | 75 ± 8.4 | 1920 ± 200 | +131% | greater than two-fold higher | −62 | approximately 60% | approximately 80% | +79% | stable | +156% | greater than two and a half-fold higher | +116% | greater than two-fold higher | 277 ± 76 | 1260 ± 289 | 
[2H]C([2H])([2H])n1ncnc1COc1nn2c(-c3cc(F)ccc3F)nnc2cc1C(C([2H])([2H])[2H])(C([2H])([2H])[2H])C([2H])([2H])[2H] [Compound 104, 7-(tert-Butyl-d9)-3-(2,5-difluorophenyl)-6-((1-(methyl-d3)-1H-1,2,4-triazol-5-yl)-methoxy)-[1,2,4]triazolo[4,3-b]pyridazine] | stable |  |  |  |  |  |  |  |  |  |  |  | stable |  |  |  |  |  |  | 
